Series [1] deals with Sorghum halepense (SORHA). The series is described as follows: Greenhouse herbicidal activity of glyphosate SL formulation with amine alkoxylate adjuvant on Sorghum. The settings on record: after 21 days; 140 g glyphosate-IPA salt/ha and 300 g amine alkoxylate/ha; score vs untreated plants. It is filed as in vivo. The protocol: (§1) For the greenhouse tests, winter wheat (cultivar Cubus), soybean (cultivar Sultana), and maize (cultivar Amadeo) was sown or potted in loamy sandy soil to a depth of 1-2 cm. When the plants had reached a growth height of 10 to 25 cm (i.e., around 10 to 21 days after sowing), the spray mixtures were applied to the plants in a spraying cabin.
(§2) A concentrated formulation comprising glyphosate isopropylammonium in solution in water and amine alkoxylate from Example 2 was diluted with deionized water and applied at a water application rate of 375 l/ha (140 g of glyphosate-IPA salt/ha and 300 g of amine alkoxylate/ha). The temperatures in the experimental period, which lasted for 3 weeks, were between 18-35° C. During this time, the experimental plants received optimum watering, with nutrients being supplied via the water used for watering.
(§3) The herbicidal activity was evaluated by awarding scores to the treated plants in comparison to the untreated control plants (Table 2). The evaluation scale ranges from 0% to 100% activity. 100% activity means the complete death at least of those parts of the plant that are above ground. Conversely, 0% activity means that there were no differences between treated and untreated plants.
(§4) The experiments were carried out as in Example 3, on Sorghum halepense (SORHA) and Setaria verticillata (SETVE). The application rate was 140 g of glyphosate-IPA salt/ha and 300 g of amine alkoxylate/ha.

The test system of series [2] is soybean (cultivar Sultana). Briefly: Greenhouse herbicidal activity of glyphosate SL formulation with amine alkoxylate adjuvant on soybean. It is filed as in vivo. Conditions: after 21 days; 140 g glyphosate-IPA salt/ha and 300 g amine alkoxylate/ha, 375 l/ha water; score vs untreated plants. The protocol: as §1, §2, §3
A short description of series [3]: Storage stability of aqueous glyphosate formulation. It is filed as physicochemical. Conditions: 41.5% by weight glyphosate-isopropylammonium salt and 15.5% by weight amine alkoxylate, −5 to +55° C.
Series [4] relates to winter wheat (cultivar Cubus). The series is described as follows: Greenhouse herbicidal activity of glyphosate SL formulation with amine alkoxylate adjuvant on winter wheat. The settings on record: after 21 days; 140 g glyphosate-IPA salt/ha and 300 g amine alkoxylate/ha, 375 l/ha water; score vs untreated plants. It is filed as in vivo. The procedure:
as §1, §2, §3

In series [5] the test system is Setaria verticillata (SETVE). The series is described as follows: Greenhouse herbicidal activity of glyphosate SL formulation with amine alkoxylate adjuvant on Setaria. It is filed as in vivo. The settings on record: after 21 days; 140 g glyphosate-IPA salt/ha and 300 g amine alkoxylate/ha; score vs untreated plants. The protocol:
as §1, §2, §3, §4

In a further series the test system is maize (cultivar Amadeo). The series is described as follows: Greenhouse herbicidal activity of glyphosate SL formulation with amine alkoxylate adjuvant on maize. It is filed as in vivo. Conditions: after 21 days; 140 g glyphosate-IPA salt/ha and 300 g amine alkoxylate/ha, 375 l/ha water; score vs untreated plants. The protocol: as §1, §2, §3

In the case of “2-Isopropyl-5-methylhexane-1-amine-10 EO”, in series [1], the “Activity [%] SORHA” value is recorded as 93%. Further, the “Activity [%] Soybean” value in series [2] was determined as 48%. Also, the Storage stability entry in series [3] was “storage stable for at least two weeks”. Also, the “Activity [%] Winter wheat” value in series [4] is on record as 62%. In series [5], the “Activity [%] SETARIA” value turned out to be 78%. Further, the “Activity [%] Maize” value in the series on maize (cultivar Amadeo) is 80%.

For 2-propylheptylamine-10 EO, the “Activity [%] SORHA” value in series [1] is listed as 97%. Further, in series [2], the “Activity [%] Soybean” value was 42%. The “Activity [%] Winter wheat” value in series [4] was 55%. For the same compound, the “Activity [%] SETARIA” value in series [5] came out at 88%. In addition, in the series on maize (cultivar Amadeo), the “Activity [%] Maize” value is reported as 80%.

Take `CC(C)N.O=C(O)CNCP(=O)(O)O` [—, glyphosate isopropylammonium]: the “Activity [%] SORHA” value in series [1] is 33%. In addition, in series [2], the “Activity [%] Soybean” value is on record as 20%. Besides, the “Activity [%] Winter wheat” value in series [4] is on record as 18%. In addition, the “Activity [%] SETARIA” value in series [5] is reported as 58%. Besides, the “Activity [%] Maize” value in the series with maize (cultivar Amadeo) worked out at 32%.

The values above are taken from patent US20140171320A1, “Composition Comprising A Pesticide And An Alkoxylate Of 2-Isopropyl-5-Methylhexane-1-Amine” (BASF SE, priority 2012, published 2014).
